Experiment: xn = mol fraction of the nth substance listed
Conditions: Gas, Loschmidt cell combine with holographic interferometry

binary diffusion coefficient (293.15 K, 100 kPa, x2 = 0.5) | binary diffusion coefficient (293.15 K, 200 kPa, x2 = 0.5) | binary diffusion coefficient (313.15 K, 100 kPa, x2 = 0.5) | binary diffusion coefficient (313.15 K, 200 kPa, x2 = 0.5) | binary diffusion coefficient (333.15 K, 200 kPa, x2 = 0.5) | binary diffusion coefficient (293.15 K, 100 kPa, x1 = 0.5) | binary diffusion coefficient (293.15 K, 200 kPa, x1 = 0.5) | binary diffusion coefficient (293.15 K, 500 kPa, x1 = 0.5) | binary diffusion coefficient (313.15 K, 200 kPa, x1 = 0.5) | binary diffusion coefficient (313.15 K, 500 kPa, x1 = 0.5) | binary diffusion coefficient (293.15 K, 500 kPa, x2 = 0.5) | binary diffusion coefficient (293.15 K, 1000 kPa, x2 = 0.5) | binary diffusion coefficient (313.15 K, 500 kPa, x2 = 0.5) | binary diffusion coefficient (313.15 K, 1000 kPa, x2 = 0.5) | binary diffusion coefficient (333.15 K, 500 kPa, x2 = 0.5) | binary diffusion coefficient (333.15 K, 1000 kPa, x2 = 0.5) | Compound | further results
1.53e-05 m2/s | 7.9e-06 m2/s | 1.76e-05 m2/s | 8.98e-06 m2/s |  |  |  |  |  |  | 3.14e-06 m2/s | 1.56e-06 m2/s | 3.55e-06 m2/s | 1.77e-06 m2/s | 4.28e-06 m2/s | 1.98e-06 m2/s | [N-]=[N+]=O [nitrous oxide] + N#N | binary diffusion coefficient (353.15 K, 1000 kPa, x2 = 0.5): 2.24e-06 m2/s
3.12e-05 m2/s | 1.56e-05 m2/s | 3.5e-05 m2/s | 1.75e-05 m2/s | 1.94e-05 m2/s |  |  |  |  |  | 6.29e-06 m2/s | 3.12e-06 m2/s | 7.02e-06 m2/s | 3.48e-06 m2/s | 7.76e-06 m2/s | 3.88e-06 m2/s | [Xe] [xenon] + [Ar] | binary diffusion coefficient (333.15 K, 100 kPa, x2 = 0.5): 3.88e-05 m2/s

More lines, now with the values behind:

Compound | binary diffusion coefficient (293.15 K, 100 kPa, x2 = 0.5) | binary diffusion coefficient (293.15 K, 200 kPa, x2 = 0.5) | binary diffusion coefficient (313.15 K, 100 kPa, x2 = 0.5) | binary diffusion coefficient (313.15 K, 200 kPa, x2 = 0.5) | binary diffusion coefficient (333.15 K, 200 kPa, x2 = 0.5) | binary diffusion coefficient (293.15 K, 100 kPa, x1 = 0.5) | binary diffusion coefficient (293.15 K, 200 kPa, x1 = 0.5) | binary diffusion coefficient (293.15 K, 500 kPa, x1 = 0.5) | binary diffusion coefficient (313.15 K, 200 kPa, x1 = 0.5) | binary diffusion coefficient (313.15 K, 500 kPa, x1 = 0.5) | binary diffusion coefficient (293.15 K, 500 kPa, x2 = 0.5) | binary diffusion coefficient (293.15 K, 1000 kPa, x2 = 0.5) | binary diffusion coefficient (313.15 K, 500 kPa, x2 = 0.5) | binary diffusion coefficient (313.15 K, 1000 kPa, x2 = 0.5) | binary diffusion coefficient (333.15 K, 500 kPa, x2 = 0.5) | binary diffusion coefficient (333.15 K, 1000 kPa, x2 = 0.5) | further results
[He] [helium] + CCC | 3.9e-05 m2/s | 1.95e-05 m2/s | 4.36e-05 m2/s | 2.18e-05 m2/s | 2.4e-05 m2/s |  |  |  |  |  |  |  |  |  |  |  | 
[He] [helium] + N |  |  |  |  |  | 7.36e-05 m2/s | 3.7e-05 m2/s | 1.46e-05 m2/s | 4.1e-05 m2/s | 1.65e-05 m2/s |  |  |  |  |  |  | binary diffusion coefficient (293.15 K, 800 kPa, x1 = 0.5): 8.96e-06 m2/s; binary diffusion coefficient (313.15 K, 800 kPa, x1 = 0.5): 1.02e-05 m2/s; binary diffusion coefficient (333.15 K, 800 kPa, x1 = 0.5): 1.13e-05 m2/s; binary diffusion coefficient (353.15 K, 800 kPa, x1 = 0.5): 1.26e-05 m2/s
[Kr] [krypton] + [He] |  |  |  |  |  | 6.19e-05 m2/s | 3.12e-05 m2/s | 1.25e-05 m2/s | 3.48e-05 m2/s | 1.34e-05 m2/s |  |  |  |  |  |  | binary diffusion coefficient (293.15 K, 1000 kPa, x1 = 0.5): 6.18e-06 m2/s; binary diffusion coefficient (313.15 K, 100 kPa, x1 = 0.5): 7.04e-05 m2/s; binary diffusion coefficient (313.15 K, 1000 kPa, x1 = 0.5): 6.94e-06 m2/s; binary diffusion coefficient (333.15 K, 200 kPa, x1 = 0.5): 3.84e-05 m2/s; binary diffusion coefficient (333.15 K, 500 kPa, x1 = 0.5): 1.55e-05 m2/s; binary diffusion coefficient (333.15 K, 1000 kPa, x1 = 0.5): 7.7e-06 m2/s; binary diffusion coefficient (353.15 K, 200 kPa, x1 = 0.5): 4.25e-05 m2/s; binary diffusion coefficient (353.15 K, 500 kPa, x1 = 0.5): 1.71e-05 m2/s; binary diffusion coefficient (353.15 K, 1000 kPa, x1 = 0.5): 8.54e-06 m2/s

— the NIST ThermoML archive (doi:10.1007/s10765-015-1981-5)
